Data published in ChEMBL document CHEMBL4425178, “A convenient synthesis and screening of benzosuberone bearing 1,2,3-triazoles against Mycobacterium tuberculosis” (2016).
In brackets after ≈: the same amount, converted by molar mass.

test system: Mycobacterium tuberculosis; test: Antimycobacterial activity against Mycobacterium tuberculosis H37Rv ATCC 27294 after 28 days by agar dilution assay; type: functional; settings: H37Rv ATCC 27294, 672 h

Q: `COc1ccc2cc(-c3cn(C4CCCCc5ccccc54)nn3)ccc2c1` (stereo not drawn) was tested. Which MIC did it give?
A: > 25 µg/mL

Q: How did the MIC turn out when `c1cncc(-c2cn(C3CCCCc4ccccc43)nn2)c1` (stereo not drawn) was run?
A: 12.5 µg/mL (≈ 43 µM)

Q: `Cc1ccc(-c2cn(C3CCCCc4ccccc43)nn2)cc1` (stereo not drawn) was tested. Which MIC did it give?
A: > 25 µg/mL

Q: `c1ccc2c(c1)CCCCC2n1cc(-c2ccsc2)nn1` (stereo not drawn) was tested. Which MIC did it give?
A: > 25 µg/mL

Q: Which MIC does the source give for `c1ccc(-c2cn(C3CCCCc4ccccc43)nn2)nc1` (stereo not drawn) here?
A: 12.5 µg/mL (≈ 43 µM)

Q: How did the MIC turn out when `COc1cccc(-c2cn(C3CCCCc4ccccc43)nn2)c1` (stereo not drawn) was run?
A: 3.12 µg/mL (≈ 9.78 µM)

Q: Which MIC does the source give for `c1cc(-c2cn(C3CCCCc4ccccc43)nn2)cc(-c2cn(C3CCCCc4ccccc43)nn2)c1` (stereo not drawn) here?
A: 6.25 µg/mL (≈ 12.5 µM)

Q: `c1ccc2c(c1)CCCCC2n1cc(-c2cc3ccccc3c3ccccc23)nn1` (stereo not drawn) was tested. Which MIC did it give?
A: > 25 µg/mL

Q: Which MIC does the source give for `CCCCCCc1cn(C2CCCCc3ccccc32)nn1` (stereo not drawn) here?
A: 6.25 µg/mL (≈ 21 µM)

Q: How did the MIC turn out when `FC(F)(F)Oc1ccc(-c2cn(C3CCCCc4ccccc43)nn2)cc1` (stereo not drawn) was run?
A: > 25 µg/mL

Q: With `c1ccc(-c2cn(C3CCCCc4ccccc43)nn2)cc1` (stereo not drawn) as the compound, how does the MIC read?
A: > 25 µg/mL

Q: For `CCCc1ccc(-c2cn(C3CCCCc4ccccc43)nn2)cc1` (stereo not drawn), which MIC is on record?
A: > 25 µg/mL

Q: Which MIC does the source give for `CCc1ccc(-c2cn(C3CCCCc4ccccc43)nn2)cc1` (stereo not drawn) here?
A: > 25 µg/mL

Q: For `CC(C)(C)c1ccc(-c2cn(C3CCCCc4ccccc43)nn2)cc1` (stereo not drawn), which MIC is on record?
A: 6.25 µg/mL (≈ 18.1 µM)

Q: With `CCCCCc1ccc(-c2cn(C3CCCCc4ccccc43)nn2)cc1` (stereo not drawn) as the compound, how does the MIC read?
A: > 25 µg/mL

Q: For `CC[C@@H](CO)NCCN[C@@H](CC)CO` [ETHAMBUTOL], which MIC is on record?
A: 3.13 µg/mL (≈ 15.3 µM)

Q: How did the MIC turn out when `NNC(=O)c1ccncc1` [ISONIAZID] was run?
A: 0.1 µg/mL (≈ 0.729 µM)

Q: Which MIC does the source give for `CO[C@H]1/C=C/O[C@@]2(C)Oc3c(C)c(O)c4c(O)c(c(/C=N/N5CCN(C)CC5)c(O)c4c3C2=O)NC(=O)/C(C)=C\C=C\[C@H](C)[C@H](O)[C@@H](C)[C@@H](O)[C@@H](C)[C@H](OC(C)=O)[C@@H]1C` [RIFAMPIN] here?
A: 0.2 µg/mL (≈ 0.243 µM)
